Source: the OligoGym collection
Oligonucleotides are given in HELM: sugar(base)linkage, 5' to 3'; d 2'-deoxyribose, r ribose, m 2'-O-methylribose, p phosphate. ss, as = sense and antisense strand
Further: test concentration or dose not given here.

What follows are substances tested against Mmp7 (rat) (assay: reporter assay of Huesken 2005). Settings: siRNA.
Work on “RNA1{r(G)p.r(C)p.r(U)p.r(G)p.r(C)p.r(C)p.r(U)p.r(G)p.r(G)p.r(C)p.r(C)p.r(C)p.r(U)p.r(G)p.r(C)p.r(C)p.r(A)p.r(C)p.r(U)p.d(T)p.d(T)}|RNA2{r(A)p.r(G)p.r(U)p.r(G)p.r(G)p.r(C)p.r(A)p.r(G)p.r(G)p.r(G)p.r(C)p.r(C)p.r(A)p.r(G)p.r(G)p.r(C)p.r(A)p.r(G)p.r(C)p.d(C)p.d(T)}$$$RNA1{StrandType:ss}|RNA2{StrandType:as}$” yielded a normalised inhibition (eCFP-eYFP dual reporter) of 64.3%.
“RNA1{r(U)p.r(G)p.r(G)p.r(C)p.r(C)p.r(C)p.r(U)p.r(G)p.r(C)p.r(C)p.r(A)p.r(C)p.r(U)p.r(G)p.r(U)p.r(C)p.r(C)p.r(C)p.r(A)p.d(T)p.d(T)}|RNA2{r(U)p.r(G)p.r(G)p.r(G)p.r(A)p.r(C)p.r(A)p.r(G)p.r(U)p.r(G)p.r(G)p.r(C)p.r(A)p.r(G)p.r(G)p.r(G)p.r(C)p.r(C)p.r(A)p.d(G)p.d(G)}$$$RNA1{StrandType:ss}|RNA2{StrandType:as}$” was tested, and the normalised inhibition (eCFP-eYFP dual reporter) was 93.6%.
“RNA1{r(G)p.r(G)p.r(A)p.r(A)p.r(C)p.r(A)p.r(G)p.r(G)p.r(C)p.r(G)p.r(C)p.r(A)p.r(G)p.r(A)p.r(A)p.r(U)p.r(U)p.r(A)p.r(U)p.d(T)p.d(T)}|RNA2{r(A)p.r(U)p.r(A)p.r(A)p.r(U)p.r(U)p.r(C)p.r(U)p.r(G)p.r(C)p.r(G)p.r(C)p.r(C)p.r(U)p.r(G)p.r(U)p.r(U)p.r(C)p.r(C)p.d(C)p.d(A)}$$$RNA1{StrandType:ss}|RNA2{StrandType:as}$” showed a normalised inhibition (eCFP-eYFP dual reporter) of 104%.
In the case of “RNA1{r(A)p.r(C)p.r(U)p.r(C)p.r(U)p.r(U)p.r(C)p.r(U)p.r(G)p.r(U)p.r(U)p.r(C)p.r(C)p.r(C)p.r(A)p.r(G)p.r(U)p.r(U)p.r(C)p.d(T)p.d(T)}|RNA2{r(G)p.r(A)p.r(A)p.r(C)p.r(U)p.r(G)p.r(G)p.r(G)p.r(A)p.r(A)p.r(C)p.r(A)p.r(G)p.r(A)p.r(A)p.r(G)p.r(A)p.r(G)p.r(U)p.d(G)p.d(A)}$$$RNA1{StrandType:ss}|RNA2{StrandType:as}$”, the normalised inhibition (eCFP-eYFP dual reporter) is reported as 81.4%.
Substance “RNA1{r(G)p.r(G)p.r(A)p.r(A)p.r(A)p.r(C)p.r(A)p.r(C)p.r(U)p.r(C)p.r(U)p.r(A)p.r(G)p.r(G)p.r(C)p.r(C)p.r(A)p.r(U)p.r(G)p.d(T)p.d(T)}|RNA2{r(C)p.r(A)p.r(U)p.r(G)p.r(G)p.r(C)p.r(C)p.r(U)p.r(A)p.r(G)p.r(A)p.r(G)p.r(U)p.r(G)p.r(U)p.r(U)p.r(U)p.r(C)p.r(C)p.d(T)p.d(G)}$$$RNA1{StrandType:ss}|RNA2{StrandType:as}$” has a normalised inhibition (eCFP-eYFP dual reporter) of 89.7%.
For “RNA1{r(U)p.r(A)p.r(U)p.r(C)p.r(U)p.r(U)p.r(A)p.r(G)p.r(G)p.r(A)p.r(A)p.r(A)p.r(U)p.r(U)p.r(U)p.r(U)p.r(A)p.r(C)p.r(C)p.d(T)p.d(T)}|RNA2{r(G)p.r(G)p.r(U)p.r(A)p.r(A)p.r(A)p.r(A)p.r(U)p.r(U)p.r(U)p.r(C)p.r(C)p.r(U)p.r(A)p.r(A)p.r(G)p.r(A)p.r(U)p.r(A)p.d(A)p.d(T)}$$$RNA1{StrandType:ss}|RNA2{StrandType:as}$”, the normalised inhibition (eCFP-eYFP dual reporter) was 28.4%.
In the case of “RNA1{r(G)p.r(A)p.r(G)p.r(G)p.r(G)p.r(A)p.r(A)p.r(A)p.r(U)p.r(G)p.r(C)p.r(A)p.r(G)p.r(A)p.r(A)p.r(G)p.r(U)p.r(U)p.r(C)p.d(T)p.d(T)}|RNA2{r(G)p.r(A)p.r(A)p.r(C)p.r(U)p.r(U)p.r(C)p.r(U)p.r(G)p.r(C)p.r(A)p.r(U)p.r(U)p.r(U)p.r(C)p.r(C)p.r(C)p.r(U)p.r(C)p.d(A)p.d(G)}$$$RNA1{StrandType:ss}|RNA2{StrandType:as}$”, the normalised inhibition (eCFP-eYFP dual reporter) is reported as 97.5%.
Substance “RNA1{r(U)p.r(G)p.r(U)p.r(G)p.r(A)p.r(U)p.r(G)p.r(U)p.r(A)p.r(C)p.r(C)p.r(C)p.r(U)p.r(A)p.r(C)p.r(C)p.r(U)p.r(A)p.r(U)p.d(T)p.d(T)}|RNA2{r(A)p.r(U)p.r(A)p.r(G)p.r(G)p.r(U)p.r(A)p.r(G)p.r(G)p.r(G)p.r(U)p.r(A)p.r(C)p.r(A)p.r(U)p.r(C)p.r(A)p.r(C)p.r(A)p.d(G)p.d(A)}$$$RNA1{StrandType:ss}|RNA2{StrandType:as}$” has a normalised inhibition (eCFP-eYFP dual reporter) of 107%.
“RNA1{r(G)p.r(G)p.r(G)p.r(G)p.r(C)p.r(C)p.r(A)p.r(G)p.r(G)p.r(C)p.r(C)p.r(U)p.r(C)p.r(G)p.r(G)p.r(C)p.r(G)p.r(G)p.r(A)p.d(T)p.d(T)}|RNA2{r(U)p.r(C)p.r(C)p.r(G)p.r(C)p.r(C)p.r(G)p.r(A)p.r(G)p.r(G)p.r(C)p.r(C)p.r(U)p.r(G)p.r(G)p.r(C)p.r(C)p.r(C)p.r(C)p.d(G)p.d(G)}$$$RNA1{StrandType:ss}|RNA2{StrandType:as}$” showed a normalised inhibition (eCFP-eYFP dual reporter) of 50.8%.
“RNA1{r(C)p.r(U)p.r(A)p.r(U)p.r(C)p.r(A)p.r(A)p.r(G)p.r(G)p.r(A)p.r(G)p.r(A)p.r(U)p.r(C)p.r(A)p.r(U)p.r(U)p.r(C)p.r(A)p.d(T)p.d(T)}|RNA2{r(U)p.r(G)p.r(A)p.r(A)p.r(U)p.r(G)p.r(A)p.r(U)p.r(C)p.r(U)p.r(C)p.r(C)p.r(U)p.r(U)p.r(G)p.r(A)p.r(U)p.r(A)p.r(G)p.d(G)p.d(T)}$$$RNA1{StrandType:ss}|RNA2{StrandType:as}$” showed a normalised inhibition (eCFP-eYFP dual reporter) of 115%.
In the case of “RNA1{r(C)p.r(U)p.r(C)p.r(U)p.r(C)p.r(U)p.r(G)p.r(G)p.r(G)p.r(U)p.r(C)p.r(U)p.r(G)p.r(G)p.r(G)p.r(U)p.r(C)p.r(A)p.r(C)p.d(T)p.d(T)}|RNA2{r(G)p.r(U)p.r(G)p.r(A)p.r(C)p.r(C)p.r(C)p.r(A)p.r(G)p.r(A)p.r(C)p.r(C)p.r(C)p.r(A)p.r(G)p.r(A)p.r(G)p.r(A)p.r(G)p.d(T)p.d(G)}$$$RNA1{StrandType:ss}|RNA2{StrandType:as}$”, the normalised inhibition (eCFP-eYFP dual reporter) is reported as 73.1%.
“RNA1{r(U)p.r(G)p.r(A)p.r(A)p.r(C)p.r(U)p.r(U)p.r(C)p.r(C)p.r(U)p.r(G)p.r(U)p.r(U)p.r(U)p.r(G)p.r(U)p.r(U)p.r(G)p.r(C)p.d(T)p.d(T)}|RNA2{r(G)p.r(C)p.r(A)p.r(A)p.r(C)p.r(A)p.r(A)p.r(A)p.r(C)p.r(A)p.r(G)p.r(G)p.r(A)p.r(A)p.r(G)p.r(U)p.r(U)p.r(C)p.r(A)p.d(C)p.d(G)}$$$RNA1{StrandType:ss}|RNA2{StrandType:as}$” showed a normalised inhibition (eCFP-eYFP dual reporter) of 33.7%.
With “RNA1{r(U)p.r(G)p.r(A)p.r(G)p.r(G)p.r(G)p.r(A)p.r(A)p.r(A)p.r(U)p.r(G)p.r(C)p.r(A)p.r(G)p.r(A)p.r(A)p.r(G)p.r(U)p.r(U)p.d(T)p.d(T)}|RNA2{r(A)p.r(A)p.r(C)p.r(U)p.r(U)p.r(C)p.r(U)p.r(G)p.r(C)p.r(A)p.r(U)p.r(U)p.r(U)p.r(C)p.r(C)p.r(C)p.r(U)p.r(C)p.r(A)p.d(G)p.d(T)}$$$RNA1{StrandType:ss}|RNA2{StrandType:as}$” the normalised inhibition (eCFP-eYFP dual reporter) was 104%.
For “RNA1{r(G)p.r(G)p.r(A)p.r(C)p.r(G)p.r(G)p.r(A)p.r(U)p.r(G)p.r(G)p.r(U)p.r(G)p.r(A)p.r(G)p.r(G)p.r(A)p.r(C)p.r(U)p.r(C)p.d(T)p.d(T)}|RNA2{r(G)p.r(A)p.r(G)p.r(U)p.r(C)p.r(C)p.r(U)p.r(C)p.r(A)p.r(C)p.r(C)p.r(A)p.r(U)p.r(C)p.r(C)p.r(G)p.r(U)p.r(C)p.r(C)p.d(A)p.d(G)}$$$RNA1{StrandType:ss}|RNA2{StrandType:as}$”, the normalised inhibition (eCFP-eYFP dual reporter) was 81.1%.
“RNA1{r(C)p.r(A)p.r(U)p.r(A)p.r(A)p.r(U)p.r(U)p.r(G)p.r(G)p.r(C)p.r(U)p.r(U)p.r(C)p.r(G)p.r(C)p.r(A)p.r(A)p.r(G)p.r(G)p.d(T)p.d(T)}|RNA2{r(C)p.r(C)p.r(U)p.r(U)p.r(G)p.r(C)p.r(G)p.r(A)p.r(A)p.r(G)p.r(C)p.r(C)p.r(A)p.r(A)p.r(U)p.r(U)p.r(A)p.r(U)p.r(G)p.d(A)p.d(T)}$$$RNA1{StrandType:ss}|RNA2{StrandType:as}$” gave a normalised inhibition (eCFP-eYFP dual reporter) of 63.1%.
In the case of “RNA1{r(U)p.r(C)p.r(A)p.r(A)p.r(G)p.r(A)p.r(G)p.r(G)p.r(G)p.r(U)p.r(U)p.r(A)p.r(G)p.r(U)p.r(U)p.r(G)p.r(G)p.r(G)p.r(G)p.d(T)p.d(T)}|RNA2{r(C)p.r(C)p.r(C)p.r(C)p.r(A)p.r(A)p.r(C)p.r(U)p.r(A)p.r(A)p.r(C)p.r(C)p.r(C)p.r(U)p.r(C)p.r(U)p.r(U)p.r(G)p.r(A)p.d(A)p.d(G)}$$$RNA1{StrandType:ss}|RNA2{StrandType:as}$”, the normalised inhibition (eCFP-eYFP dual reporter) is reported as 40.8%.
“RNA1{r(C)p.r(C)p.r(U)p.r(G)p.r(C)p.r(C)p.r(A)p.r(C)p.r(U)p.r(G)p.r(U)p.r(C)p.r(C)p.r(C)p.r(A)p.r(G)p.r(G)p.r(A)p.r(A)p.d(T)p.d(T)}|RNA2{r(U)p.r(U)p.r(C)p.r(C)p.r(U)p.r(G)p.r(G)p.r(G)p.r(A)p.r(C)p.r(A)p.r(G)p.r(U)p.r(G)p.r(G)p.r(C)p.r(A)p.r(G)p.r(G)p.d(G)p.d(C)}$$$RNA1{StrandType:ss}|RNA2{StrandType:as}$” gave a normalised inhibition (eCFP-eYFP dual reporter) of 67.9%.
Work on “RNA1{r(U)p.r(U)p.r(A)p.r(C)p.r(C)p.r(U)p.r(U)p.r(C)p.r(A)p.r(C)p.r(G)p.r(A)p.r(C)p.r(U)p.r(C)p.r(U)p.r(A)p.r(A)p.r(A)p.d(T)p.d(T)}|RNA2{r(U)p.r(U)p.r(U)p.r(A)p.r(G)p.r(A)p.r(G)p.r(U)p.r(C)p.r(G)p.r(U)p.r(G)p.r(A)p.r(A)p.r(G)p.r(G)p.r(U)p.r(A)p.r(A)p.d(A)p.d(A)}$$$RNA1{StrandType:ss}|RNA2{StrandType:as}$” yielded a normalised inhibition (eCFP-eYFP dual reporter) of 131%.
In the case of “RNA1{r(C)p.r(A)p.r(U)p.r(G)p.r(G)p.r(A)p.r(G)p.r(A)p.r(U)p.r(A)p.r(A)p.r(U)p.r(G)p.r(C)p.r(A)p.r(G)p.r(A)p.r(A)p.r(G)p.d(T)p.d(T)}|RNA2{r(C)p.r(U)p.r(U)p.r(C)p.r(U)p.r(G)p.r(C)p.r(A)p.r(U)p.r(U)p.r(A)p.r(U)p.r(C)p.r(U)p.r(C)p.r(C)p.r(A)p.r(U)p.r(G)p.d(A)p.d(C)}$$$RNA1{StrandType:ss}|RNA2{StrandType:as}$”, the normalised inhibition (eCFP-eYFP dual reporter) is reported as 97.5%.
“RNA1{r(A)p.r(G)p.r(U)p.r(G)p.r(C)p.r(C)p.r(A)p.r(G)p.r(A)p.r(U)p.r(G)p.r(U)p.r(U)p.r(G)p.r(C)p.r(A)p.r(G)p.r(A)p.r(A)p.d(T)p.d(T)}|RNA2{r(U)p.r(U)p.r(C)p.r(U)p.r(G)p.r(C)p.r(A)p.r(A)p.r(C)p.r(A)p.r(U)p.r(C)p.r(U)p.r(G)p.r(G)p.r(C)p.r(A)p.r(C)p.r(U)p.d(C)p.d(C)}$$$RNA1{StrandType:ss}|RNA2{StrandType:as}$” gave a normalised inhibition (eCFP-eYFP dual reporter) of 115%.
